In series [1] the test system is HFD-fed obese mice. Briefly: Liver and kidney histology (H&E). In kind it is in vivo. To be noted: three weeks 100 μg/kg i.p.
Series [2] relates to alanine transaminase (ALT). Briefly: Serum ALT by ELISA. Format: in vivo. The settings on record: three weeks 100 μg/kg i.p., HFD-fed obese mice. How it is done: (§1) To investigate the effect of celastrol administration on liver function, serum levels of alanine transaminase (ALT) and aspartate transaminase (AST) were measured in mice following three weeks of celastrol treatment (100 μg/kg, i.p.). ALT and AST were measured using an enzyme-linked immunosorbent assay (ELISA) kit (from Bio Scientific).
(An ELISA detects its analyte on a solid surface through an enzyme-linked reagent.)

The test system of series [3] is aspartate transaminase (AST). Briefly: Serum AST by ELISA. Format: in vivo. To be noted: three weeks 100 μg/kg i.p., HFD-fed obese mice. How it is done:
as §1

Series [4] relates to mice. Briefly: Locomotor activity (Columbus Instruments Comprehensive Lab Animal Monitoring System). Format: in vivo. How it is done:
Locomotor activity was also normal in celastrol-treated mice. This is consistent with celastrol not having a toxic effect causing anorexia and weight loss, since the latter would be associated with decreased locomotor activity.
FIGS. 16A and 16B are graphs showing x (FIG. 16A) and y (FIG. 16B) direction ambulatory motion for control and celastrol in dark and light cycles. Toxicity was evaluated using Columbus Instruments Comprehensive Lab Animal Monitoring System we have measure the locomotor activity of the animals.

The conditions of series [5]: weight loss products; Sources: FDA 2010, Natural Medicines Comprehensive Database 2010; cited from earlier work.
The test system of series [6] is lean mice. In words: Leptin injection upon acute celastrol treatment, lean mice. In kind it is in vivo. The settings on record: 6-hour time point, leptin 10 mg/kg ip, DMSO or celastrol 100 μg/kg ip pre-treatment. How it is done: (§2) It was therefore hypothesized that celastrol exerts anti-obesity effects through increasing leptin sensitivity in the brains of the HFD-fed obese mice. To test this hypothesis, leptin was administered to celastrol- or vehicle-treated HFD-fed obese animals. To avoid any possible leptin sensitizing effect of weight loss or decreased food intake created by celastrol administration, leptin injections were carried out upon acute celastrol treatment as described below.
(§3) Lean and HFD-fed obese mice were divided into four groups: 1) DMSO+saline, 2) DMSO+leptin, 3) celastrol+saline, and 4) celastrol+leptin (n=3 per group). Mice were injected (ip) with 100 μg/kg celastrol or vehicle (DMSO) one hour before dark cycle (day zero). 24 hours later, mice were injected for a second time with celastrol or DMSO (day 1), and all animals were then taken to 24 hour-fasting. On day two, at 21 hours of fasting, mice received a final injection of DMSO or celastrol. 30 minutes prior to dark cycle, at 23.5 hour of fasting, mice received a single ip injection of leptin (10 mg/kg, dissolved in saline), or saline. […] 1, 3, 6, 15, and 24-hour food intake and 24-hour body weight changes were recorded (FIG. 7A). […] This is clearly evident when food intake of the celastrol-treated mice is calculated in percent values (FIG. 7B). […]

The subject of series [7] is HFD-fed obese mice. In words: Leptin injection upon acute celastrol treatment, HFD-fed obese mice. Format: in vivo. How it is done:
as §2, §3

Turning to `CC1=C(O)C(=O)C=C2C1=CC=C1[C@@]2(C)CC[C@@]2(C)[C@@H]3C[C@](C)(C(=O)O)CC[C@]3(C)CC[C@]12C` [celastrol], the kidney morphology result in series [1] was “no detectable change”. Besides, the ALT levels entry in series [2] is reported as “decreases”. For the same molecule, the AST levels result in series [3] was “decreases”. The locomotor activity result in series [4] (celastrol-treated mice) is on record as “normal”. The “x and y direction ambulatory motion counts” value in series [4] (dark and light cycles, versus control) is given as “not significantly different”. Moreover, the “visible sign of sickness and toxicity” value in series [4] (drug treated mice) was “do not show any visible sign”.
On to `[Cr]` [Chromium], for which the Safety entry in series [5] is listed as “Likely safe”.
Regarding “Conjugated linoleic acid [Conjugated linoleic acid (CLA)]”, in series [5], the Safety result is reported as “Possibly safe”.

B1: leptin: peptide hormone regulating food intake and body weight; injected ip dissolved in saline (protein, UniProt P41160 22-167, looked up)
Leptin: VPIQKVQDDTKTLIKTIVTRINDISHTQSVSAKQRVTGLDFIPGLHPILSLSKMDQTLAVYQQVLTSLPSQNVLQIANDLENLRDLLHLLAFSKSCSLPQTSGLQKPESLDGVLEASLYSTEVVALSRLQGSLQDILQQLDVSPEC
As for B1, the “decrease in food intake upon leptin injection” value in series [6] is on record as “approximately 40%”; in series [7] (6-hour time point, leptin 10 mg/kg ip, DMSO or celastrol 100 μg/kg ip pre-treatment) it was “approximately 40%”. In addition, the “24-hour body weight change” value in series [7] (24 hour ad libitum feeding period after 24-hour fasting) is “resistant”.

The values above are taken from patent US12064408B2, “Compounds for the treatment of obesity and methods of use thereof” (The Children's Medical Center Corporation, priority 2012, dated 2024).
